Data as given in patent US20250009755A1, “COMPOSITIONS AND METHODS FOR THE TREATMENT OF OCULAR DISEASES AND INJURIES” (Ohio State Innovation Foundation, priority 2021, published 2025).

Assays:
[1] = cited from earlier work
VEGF-A = settings: wet AMD patients; cited from earlier work
C5 = molecular target: T1, C5 (Homo sapiens, UniProt P01031); settings: intravitreal injections, Phase 2/3 GATHER1; cited from earlier work
T1 construct: host or cells: endogenous C5 of study patients

HUVECs = test: H2O2-induced tubule formation in HUVECs co-cultured with ARPE-19 cells (Calcein AM); format: cell-based, human; settings: 200 μM H2O2; 10 μg/mL NPs or 5 μg/mL bevacizumab; vs positive control
Method: Under oxidative stress induced by 200 μM H2O2, ARPE-19 cells were co-cultured with human umbilical vein endothelial cells (HUVECs) to investigate the influence of H2O2 and drug-loaded PDA NPs on the development of the three-dimensional capillary structure. Exposure to H2O2 induced secretion of VEGF and tubule formation. Cells were then incubated with 5 μg/mL native bevacizumab control or 10 μg/mL NPs with and without anti-VEGF. […] The reaction of PDA NPs with H2O2 also simultaneously degraded (FIG. 6B) and triggered drug release (FIG. 7), favorable for spatiotemporal control of release at disease sites.

C3 = molecular target: T2, C3 (Homo sapiens, UniProt P01024); settings: intravitreal injection, Phase 2 FILLY; cited from earlier work
T2 construct: host or cells: endogenous C3 of study patients
T2 sequence (P01024 23-667 limits assumed): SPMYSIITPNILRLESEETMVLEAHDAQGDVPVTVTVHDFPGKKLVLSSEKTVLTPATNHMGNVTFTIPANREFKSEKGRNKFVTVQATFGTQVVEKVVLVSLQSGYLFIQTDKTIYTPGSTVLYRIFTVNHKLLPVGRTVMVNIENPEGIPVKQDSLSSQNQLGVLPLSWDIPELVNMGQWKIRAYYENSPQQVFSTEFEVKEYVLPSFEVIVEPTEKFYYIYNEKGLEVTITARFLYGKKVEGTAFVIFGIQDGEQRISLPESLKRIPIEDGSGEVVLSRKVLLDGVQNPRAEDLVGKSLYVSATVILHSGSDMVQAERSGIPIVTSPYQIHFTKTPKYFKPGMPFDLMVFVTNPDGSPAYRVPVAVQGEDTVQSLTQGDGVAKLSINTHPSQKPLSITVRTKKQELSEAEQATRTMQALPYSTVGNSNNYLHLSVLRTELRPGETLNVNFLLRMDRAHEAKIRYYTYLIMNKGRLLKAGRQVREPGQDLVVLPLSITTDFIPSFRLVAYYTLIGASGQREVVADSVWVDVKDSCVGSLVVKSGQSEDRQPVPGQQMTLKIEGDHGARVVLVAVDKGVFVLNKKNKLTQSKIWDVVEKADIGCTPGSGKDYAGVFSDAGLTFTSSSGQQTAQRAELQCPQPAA
T2 sequence (P01024 672-1663 partner limits assumed): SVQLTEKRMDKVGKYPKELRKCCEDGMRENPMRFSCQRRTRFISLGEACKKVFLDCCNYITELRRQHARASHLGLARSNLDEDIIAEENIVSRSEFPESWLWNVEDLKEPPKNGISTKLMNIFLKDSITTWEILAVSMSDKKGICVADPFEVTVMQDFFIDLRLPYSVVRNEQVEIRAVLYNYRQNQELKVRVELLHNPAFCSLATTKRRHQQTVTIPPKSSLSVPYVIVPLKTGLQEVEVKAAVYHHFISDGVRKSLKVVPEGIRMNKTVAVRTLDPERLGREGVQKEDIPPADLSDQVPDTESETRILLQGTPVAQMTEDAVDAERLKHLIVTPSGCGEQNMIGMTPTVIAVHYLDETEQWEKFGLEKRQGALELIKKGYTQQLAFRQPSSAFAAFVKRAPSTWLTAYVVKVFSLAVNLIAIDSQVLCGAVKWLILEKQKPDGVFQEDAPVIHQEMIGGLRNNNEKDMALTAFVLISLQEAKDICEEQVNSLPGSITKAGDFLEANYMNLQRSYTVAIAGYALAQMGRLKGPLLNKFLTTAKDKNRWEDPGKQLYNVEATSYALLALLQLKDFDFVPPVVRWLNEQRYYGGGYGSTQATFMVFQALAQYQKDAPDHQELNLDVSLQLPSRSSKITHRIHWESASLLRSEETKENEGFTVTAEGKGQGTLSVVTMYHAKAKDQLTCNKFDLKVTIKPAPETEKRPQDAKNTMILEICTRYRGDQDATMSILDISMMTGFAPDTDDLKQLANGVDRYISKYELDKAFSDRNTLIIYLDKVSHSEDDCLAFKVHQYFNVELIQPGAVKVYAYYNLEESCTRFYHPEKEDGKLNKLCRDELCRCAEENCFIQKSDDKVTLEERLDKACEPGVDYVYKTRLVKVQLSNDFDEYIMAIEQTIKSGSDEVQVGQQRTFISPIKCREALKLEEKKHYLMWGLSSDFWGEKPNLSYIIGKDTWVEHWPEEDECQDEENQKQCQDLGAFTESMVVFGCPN

Sequence of VEGF-A (P15692 207-311 limits assumed): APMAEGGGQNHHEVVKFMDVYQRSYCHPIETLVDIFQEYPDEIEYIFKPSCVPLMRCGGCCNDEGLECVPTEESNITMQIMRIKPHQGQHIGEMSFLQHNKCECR
T1 sequence (P01031 19-673 limits assumed): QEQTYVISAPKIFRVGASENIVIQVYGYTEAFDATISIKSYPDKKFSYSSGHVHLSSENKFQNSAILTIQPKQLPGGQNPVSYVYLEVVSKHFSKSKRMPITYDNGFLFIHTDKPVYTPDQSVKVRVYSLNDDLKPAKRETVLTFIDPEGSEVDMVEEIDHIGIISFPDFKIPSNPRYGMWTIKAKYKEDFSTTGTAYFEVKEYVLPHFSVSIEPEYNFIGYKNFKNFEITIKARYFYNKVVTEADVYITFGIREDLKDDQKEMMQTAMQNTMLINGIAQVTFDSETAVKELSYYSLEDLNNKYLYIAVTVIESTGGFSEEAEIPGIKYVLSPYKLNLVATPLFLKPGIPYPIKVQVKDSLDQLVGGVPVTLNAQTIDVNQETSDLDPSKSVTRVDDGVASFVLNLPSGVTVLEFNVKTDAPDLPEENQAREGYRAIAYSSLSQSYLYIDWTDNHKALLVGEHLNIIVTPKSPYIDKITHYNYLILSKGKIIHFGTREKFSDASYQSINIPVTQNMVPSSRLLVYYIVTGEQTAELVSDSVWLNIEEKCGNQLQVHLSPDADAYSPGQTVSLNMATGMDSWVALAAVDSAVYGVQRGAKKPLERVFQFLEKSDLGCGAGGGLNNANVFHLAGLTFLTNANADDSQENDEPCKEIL
T1 sequence (P01031 678-1676 limits assumed): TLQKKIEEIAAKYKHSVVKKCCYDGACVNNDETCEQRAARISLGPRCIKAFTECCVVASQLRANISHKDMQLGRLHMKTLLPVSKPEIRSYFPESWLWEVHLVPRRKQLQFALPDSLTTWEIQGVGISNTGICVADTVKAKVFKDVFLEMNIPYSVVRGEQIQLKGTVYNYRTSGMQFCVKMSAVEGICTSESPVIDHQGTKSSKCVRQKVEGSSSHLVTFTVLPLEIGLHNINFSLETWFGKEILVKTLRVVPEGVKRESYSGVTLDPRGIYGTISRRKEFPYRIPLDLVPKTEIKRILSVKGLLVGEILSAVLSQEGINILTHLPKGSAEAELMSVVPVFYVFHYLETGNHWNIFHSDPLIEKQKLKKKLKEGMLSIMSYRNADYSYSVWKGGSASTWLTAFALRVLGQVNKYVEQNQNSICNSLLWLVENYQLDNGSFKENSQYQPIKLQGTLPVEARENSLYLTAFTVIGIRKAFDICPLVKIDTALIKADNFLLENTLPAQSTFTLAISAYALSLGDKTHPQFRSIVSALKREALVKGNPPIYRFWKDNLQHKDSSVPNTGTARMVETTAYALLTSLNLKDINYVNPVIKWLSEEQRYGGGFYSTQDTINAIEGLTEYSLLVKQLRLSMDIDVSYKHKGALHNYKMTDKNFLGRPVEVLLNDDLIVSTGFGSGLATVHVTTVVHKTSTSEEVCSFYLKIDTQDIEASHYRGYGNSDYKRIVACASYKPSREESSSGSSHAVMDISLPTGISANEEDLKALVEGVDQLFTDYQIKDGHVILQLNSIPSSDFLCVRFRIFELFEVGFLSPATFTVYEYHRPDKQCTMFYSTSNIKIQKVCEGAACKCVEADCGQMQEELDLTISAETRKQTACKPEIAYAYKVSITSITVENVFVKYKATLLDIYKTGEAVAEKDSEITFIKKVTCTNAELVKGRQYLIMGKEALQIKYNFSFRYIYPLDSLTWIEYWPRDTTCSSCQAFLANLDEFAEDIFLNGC

C=CC1=C(C)c2cc3[n-]c(cc4[n-]c(cc5nc(cc1n2)C(C)=C5C=C)c(C)c4CCC(=O)O)c(CCC(=O)O)c3C.[Fe+2] [Heme]
aqueous solubility [1]: insoluble in aqueous solution

RAN: monoclonal antibody fragment with strong affinity to VEGF-A
patients with improved vision (VEGF-A): 29%-40%

avacincaptad pegol
GA growth rate (C5): significantly reduced GA growth rate

bevacizumab: a monoclonal antibody that inhibits VEGF-A
tubule formation in HUVECs (HUVECs): significant decrease

pegcetacoplan
GA growth rate (C3): significantly reduced GA growth rate
